According to patent publication US20240059677A1, “SUBSTITUTED PYRIMIDINE DERIVATIVES AS NICOTINIC ACETYLCHOLINESTERASE RECEPTOR ALPHA 6 MODULATOR” (priority 2020, published 2024):
Read-outs that look alike come from different tables or passages of the source. Marks after values point to notes of the source that are not given here.

Columns and labels:
[1] = test system: tremulous jaw movements induced by tacrine in male C57BL/6J mice; assay: tacrine-induced tremulous jaw movements, mice; assay type: in vivo; details: mouse; 10 mg/kg p.o.; tacrine 5 mg/kg i.p.; n=10/group; tremulous jaw movements relative to vehicle (100%)
Procedure: (§1) Resting tremor is one of the classic symptoms of Parkinson's disease. These characteristic tremors can be modelled pharmacologically in preclinical models using cholinomimetics such as the acetylcholine esterase inhibitor, tacrine (5 mg/kg, i.p.) (Salamone et al, Prog Neurobiol 56: 591-611 1998) to induce tremulous jaw movement behaviours. These tremulous jaw movements are thought to arise from an imbalance between cholinergic and dopaminergic neurotransmission and are thought to mimic the imbalances in neurotransmission resulting from the dopamine loss seen in Parkinson's disease (Aosaki et al, Geriatr Gerontol Int 10: s148-s157 2010). These tremors can be reversed by agents increasing the dopamine tone, such as dopamine agonists (Salamone et al, Behav Brain Res 156: 173-179 2005).
The objective of these studies was to evaluate the effects of oral administration of Example Compounds on tremulous jaw movements induced by tacrine in male C57BL/6J mice or Sprague-Dawley rats. Animals were administered vehicle (0.5% methylcellulose, p.o.) or Example Compound (across a range of doses; 10 mg/kg, p.o. data shown) 15 to 60 minutes prior to behavioural testing (n=10/group). Tacrine (5 mg/kg, i.p.) was administered to all animals immediately before behavioural assessment commenced. For each animal the latency to the first tremulous jaw movement and the total duration of the tremulous jaw movements post tacrine administration were recorded.
illustrative data shown is percentage attenuation of tacrine-induced tremulous jaw movements relative to vehicle (100%). Each compound shown was tested at 10 mg/kg p.o.
(§2) Statistical significance was assessed using an unpaired student's t-test vs vehicle * p<0.05, ***p<0.001.

[2] = target: T1, human nAChRα6-α3 chimera, in addition to β2 and β3^V273S subunits (Homo sapiens, UniProt P32297+Q15825); assay: fluorescence-based calcium assay: inhibition of nicotine stimulated nAChRα6 activity (FLIPR); details: HEK cell line stably expressing the receptor, 10 min pre-incubation, nicotine EC80, 10-point curve, duplicate wells
T1 construct: expressed in transfected cells
In short: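 HEK cells stably expressing the human α6-α3 chimera with β2 and β3^V273S were loaded with calcium dye at 30° C. Compounds were pre-incubated for 10 min before nicotine at EC80, and the fluorescence change was read on a FLIPR. Ten-point half-log concentration-response, duplicate wells.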

[3] = test system: tremulous jaw movements induced by tacrine in Sprague-Dawley rats; assay: tacrine-induced tremulous jaw movements, rats; assay type: in vivo; details: rat; 10 mg/kg p.o.; tacrine 5 mg/kg i.p.; n=10/group; tremulous jaw movements relative to vehicle (100%)
Procedure: as §1
The objective of these studies was to evaluate the effects of oral administration of Example Compounds on tremulous jaw movements induced by tacrine in male C57BL/6J mice or Sprague-Dawley rats. […] For each animal the latency to the first tremulous jaw movement and the total duration of the tremulous jaw movements post tacrine administration were recorded. […]
as §2

T1 sequence (Q05901 25-458 V273S): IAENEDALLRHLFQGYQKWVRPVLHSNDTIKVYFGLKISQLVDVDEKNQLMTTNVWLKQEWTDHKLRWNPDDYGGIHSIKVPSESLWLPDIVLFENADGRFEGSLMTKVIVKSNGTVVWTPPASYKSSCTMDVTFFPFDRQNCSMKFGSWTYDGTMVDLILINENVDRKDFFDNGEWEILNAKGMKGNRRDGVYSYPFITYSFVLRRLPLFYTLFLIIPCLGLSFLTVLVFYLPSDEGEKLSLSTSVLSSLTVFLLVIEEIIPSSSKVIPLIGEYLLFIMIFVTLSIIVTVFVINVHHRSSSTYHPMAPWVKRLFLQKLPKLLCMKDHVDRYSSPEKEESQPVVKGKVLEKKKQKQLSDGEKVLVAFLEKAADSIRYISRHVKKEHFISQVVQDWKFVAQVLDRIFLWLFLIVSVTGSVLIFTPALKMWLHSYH
T1 sequence (P17787 26-502, stated change not applied, further chain): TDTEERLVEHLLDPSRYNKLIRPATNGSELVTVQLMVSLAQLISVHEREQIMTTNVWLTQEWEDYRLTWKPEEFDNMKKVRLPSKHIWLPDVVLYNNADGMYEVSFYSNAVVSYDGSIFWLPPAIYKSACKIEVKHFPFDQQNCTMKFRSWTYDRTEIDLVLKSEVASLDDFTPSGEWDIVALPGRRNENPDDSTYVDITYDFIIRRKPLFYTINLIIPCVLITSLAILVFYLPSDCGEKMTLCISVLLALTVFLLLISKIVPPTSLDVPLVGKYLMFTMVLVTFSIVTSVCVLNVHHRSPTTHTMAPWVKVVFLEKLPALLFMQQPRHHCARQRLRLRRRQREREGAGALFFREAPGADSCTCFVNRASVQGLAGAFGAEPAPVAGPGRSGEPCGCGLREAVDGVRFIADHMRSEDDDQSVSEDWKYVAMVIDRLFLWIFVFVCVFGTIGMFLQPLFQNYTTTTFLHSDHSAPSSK
T1 sequence (Q15825+P32297 fused with the stated changes): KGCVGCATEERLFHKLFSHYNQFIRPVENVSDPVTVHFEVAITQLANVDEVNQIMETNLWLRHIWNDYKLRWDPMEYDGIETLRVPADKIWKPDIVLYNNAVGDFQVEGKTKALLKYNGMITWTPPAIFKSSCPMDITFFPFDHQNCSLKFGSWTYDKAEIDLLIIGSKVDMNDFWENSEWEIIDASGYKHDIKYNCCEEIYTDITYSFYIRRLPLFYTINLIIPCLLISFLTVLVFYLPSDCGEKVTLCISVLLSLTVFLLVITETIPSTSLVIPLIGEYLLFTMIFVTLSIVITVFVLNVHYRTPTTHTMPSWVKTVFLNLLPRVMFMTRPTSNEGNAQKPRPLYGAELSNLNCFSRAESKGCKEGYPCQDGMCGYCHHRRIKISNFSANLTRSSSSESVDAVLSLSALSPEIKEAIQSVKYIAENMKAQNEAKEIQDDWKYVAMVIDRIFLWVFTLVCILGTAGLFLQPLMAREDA

Compound	IC50 ([2]; read-out: IC50)	also measured
CCN1CCC[C@H](Nc2ncc(-c3ccc(F)cc3F)c(C)n2)C1.O=C(O)/C=C/C(=O)O (single isomer, unassigned) [Example 78b]	0.06 µM	% Decrease from vehicle or percentage relative to vehicle (100%), (mean ± SEM) [1]: 23.8 ± 7.7*** %
Cc1nc(NC[C@H]2CCCN2C)ncc1-c1ccc(F)cc1F [Example 24b, (R)-5-(2,4-difluorophenyl)-4-methyl-N-((1-methylpyrrolidin-2-yl)methyl) pyrimidin-2-amine]	0.005 µM	% Decrease from vehicle or percentage relative to vehicle (100%), (mean ± SEM) [1]: 23.9 ± 3.8*** %
CC(C)N1CCC(Nc2ncc(-c3ccc(F)cc3F)c(C#N)n2)CC1 [Example 65, 5-(2,4-difluorophenyl)-2-((1-isopropylpiperidin-4-yl)amino)pyrimidine-4-carbonitrile]	0.084 µM	% Decrease from vehicle or percentage relative to vehicle (100%), (mean ± SEM) [3]: 30.0 ± 12.8* %
Cc1nc(NC[C@@H]2CCCN2)ncc1-c1ccc(F)cc1F [Example 94b, (S)-5-(2,4-difluorophenyl)-4-methyl-N-(pyrrolidin-2-ylmethyl)pyrimidin-2-amine]	0.005 µM	% Decrease from vehicle or percentage relative to vehicle (100%), (mean ± SEM) [1]: 79.9 ± 7.2%
Cc1nc(N[C@@H]2CNC[C@H]2O)ncc1-c1ccc(C(F)(F)F)cc1F [Example 115, (3R,4R)-4-((5-(2-fluoro-4-(trifluoromethyl)phenyl)-4-methyl-pyrimidin-2-yl)amino)pyrrolidin-3-ol]	0.121 µM	–
Cc1nc(N[C@H]2CCCNC2)ncc1-c1ccc(C(F)(F)F)cc1F [Example 116, (S)-5-(2-fluoro-4-(trifluoromethyl)phenyl)-4-methyl-N-(3-piperidinyl) pyrimidin-2-amine]	–	IC50 ([2]; IC50 (μM)): 0.127 µM
O=C(O)/C=C/C(=O)O.[2H]C([2H])([2H])N1CCC[C@@H]1CNc1ncc(-c2ccc(C(F)(F)F)cc2F)c(C)n1 [Example 117, (R)-5-(2-fluoro-4-(trifluoromethyl)phenyl)-4-methyl-N-((1-(trideuteriomethyl)pyrrolidin-2-yl)methyl)pyrimidin-2-amine]	0.025 µM	–
O=C(O)/C=C/C(=O)O.[2H]C([2H])([2H])N1CCC[C@H]1CNc1ncc(-c2ccc(C(F)(F)F)cc2F)c(C)n1 [Example 118, (S)-5-(2-fluoro-4-(trifluoromethyl)phenyl)-4-methyl-N-((1-(trideuteriomethyl)pyrrolidin-2-yl)methyl)pyrimidin-2-amine]	0.075 µM	–
Cc1nc(N[C@H]2CN3CCC2CC3)ncc1-c1ccc(C(F)(F)F)cc1F [Example 119, (R)—N-(5-(2-fluoro-4-(trifluoromethyl)phenyl)-4-methyl-pyrimidin-2-yl) quinuclidin-3-amine]	0.155 µM	–
Cc1nc(N[C@@H]2CN3CCC2CC3)ncc1-c1ccc(C(F)(F)F)cc1F [Example 120, (S)—N-(5-(2-fluoro-4-(trifluoromethyl)phenyl)-4-methyl-pyrimidin-2-yl) quinuclidin-3-amine]	0.179 µM	–
Cc1nc(N[C@H]2C[C@H]3CC[C@@H](C2)N3)ncc1-c1ccc(C(F)(F)F)cc1F [Example 121, (1R,3s,5S)—N-(5-(2-fluoro-4-(trifluoromethyl)phenyl)-4-methyl-pyrimidin-2-yl)-8-azabicyclo[3.2.1]octan-3-amine]	0.191 µM	–
Cc1nc(NC2CC3(CNC3)C2)ncc1-c1ccc(C(F)(F)F)cc1F [Example 122, N-(5-(2-fluoro-4-(trifluoromethyl)phenyl)-4-methyl-pyrimidin-2-yl)-2-azaspiro[3.3]heptan-6-amine]	0.039 µM	–
Cc1nc(NC2CC23CCNCC3)ncc1-c1ccc(C(F)(F)F)cc1F (stereo not shown) [Example 123, N-(5-(2-fluoro-4-(trifluoromethyl)phenyl)-4-methyl-pyrimidin-2-yl)-6-azaspiro[2.5]octan-1-amine]	0.15 µM	–
Cc1nc(N[C@H]2CCNC[C@@H]2F)ncc1-c1ccc(C(F)(F)F)cc1F [Example 124, 5-(2-fluoro-4-(trifluoromethyl)phenyl)-N-((3S,4S)-3-fluoropiperidin-4-yl)-4-methyl-pyrimidin-2-amine]	0.903 µM	–
Cc1nc(N[C@H]2CCC[C@H](N)C2)ncc1-c1ccc(C(F)(F)F)cc1F [Example 125, (1S,3S)—N^1-(5-(2-fluoro-4-(trifluoromethyl)phenyl)-4-methyl-pyrimidin-2-yl)cyclohexane-1,3-diamine]	0.223 µM	–
Cc1nc(NC2CC(C)(C)NC(C)(C)C2)ncc1-c1ccc(C(F)(F)F)cc1F [Example 126, 5-(2-fluoro-4-(trifluoromethyl)phenyl)-4-methyl-N-(2,2,6,6-tetramethylpiperidin-4-yl)pyrimidin-2-amine]	0.259 µM	–
Cc1nc(NC[C@H]2CCCNC2)ncc1-c1ccc(C(F)(F)F)cc1F [Example 127, (S)-5-(2-fluoro-4-(trifluoromethyl)phenyl)-4-methyl-N-(piperidin-3-ylmethyl)pyrimidin-2-amine]	0.119 µM	–
Cc1nc(N[C@@H]2CCCNC2)ncc1-c1ccc(C(F)(F)F)cc1F [Example 128, (R)-5-(2-fluoro-4-(trifluoromethyl)phenyl)-4-methyl-N-(piperidin-3-yl) pyrimidin-2-amine]	–	IC50 ([2]; IC50 (μM)): 0.18 µM
Cc1nc(NC[C@]2(C)CCCN2)ncc1-c1ccc(C(F)(F)F)cc1F [Example 134, (S)-5-(2-fluoro-4-(trifluoromethyl)phenyl)-4-methyl-N-((2-methyl-pyrrolidin-2-yl)methyl)pyrimidin-2-amine]	0.101 µM	–
Cc1nc(NC[C@@]2(C)CCCN2)ncc1-c1ccc(C(F)(F)F)cc1F [Example 135, (R)-5-(2-fluoro-4-(trifluoromethyl)phenyl)-4-methyl-N-((2-methyl-pyrrolidin-2-yl)methyl)pyrimidin-2-amine]	0.07 µM	–
Cc1nc(NC[C@]2(C)CCCN2C)ncc1-c1ccc(C(F)(F)F)cc1F [Example 136, (S)—N-((1,2-dimethylpyrrolidin-2-yl)methyl)-5-(2-fluoro-4-(trifluoromethyl)phenyl)-4-methyl-pyrimidin-2-amine]	–	IC50 ([2]; IC50 (μM)): 0.096 µM
Cc1nc(NC[C@@]2(C)CCCN2C)ncc1-c1ccc(C(F)(F)F)cc1F [Example 137, (R)—N-((1,2-dimethylpyrrolidin-2-yl)methyl)-5-(2-fluoro-4-(trifluoromethyl)phenyl)-4-methyl-pyrimidin-2-amine]	–	IC50 ([2]; IC50 (μM)): 0.11 µM
Cc1nc(NC(=O)[C@H]2CCCN2C)ncc1-c1ccc(C(F)(F)F)cc1F [Example 139, (R)—N-(5-(2-fluoro-4-(trifluoromethyl)phenyl)-4-methyl-pyrimidin-2-yl)-1-methylpyrrolidine-2-carboxamide]	0.086 µM	–
Cc1nc(NC(=O)[C@@H]2CCCN2C)ncc1-c1ccc(C(F)(F)F)cc1F [Example 140, (S)—N-(5-(2-fluoro-4-(trifluoromethyl)phenyl)-4-methyl-pyrimidin-2-yl)-1-methylpyrrolidine-2-carboxamide]	0.079 µM	–
